# System: Pseudaletia separata Walker
# Assay: Effects on Pseudaletia separata Walker (corn leaf immersion, third instar larvae)
# Type: in vivo
# Conditions: wettable powder diluted to 125 ppm, corn leaves immersed 30 seconds, 25° C., 65% RH, assessed 6 days after treatment
# Method: Effects on Pseudaletia separata Walker
# According to the instructions of the wettable powder described in the above Example 2, a wettable powder was diluted with water to make the compound concentration 125 ppm. Corn leaves were immersed in the solution for 30 seconds, air-dried and placed in a Petri dish containing 5 third instar larvae of Pseudaletia separata Walker. The dish was covered with a glass lid and placed in a thermostatic chamber of temperature of 25° C. and relative humidity of 65%. Mortality was assessed 6 days after treatment. Each test was replicated twice.
compound,measurement,value
Cc1cc(Cl)ccc1N=CN(C)C [Chlordimeform],mortality,40%
